Data published in article PMC10648541, “Design, Synthesis, and Antiproliferative Activity of Selective Histone Deacetylases 6 Inhibitors Containing a Tetrahydropyridopyrimidine Scaffold” (Molecules, 2023).

Key:
[1] = test system: MCF7; test: NCI-60 antiproliferative screening, MCF7; assay type: cell-based; conditions: Homo sapiens, MCF7 (Breast Cancer), read-out: Inhibition% values at 10 μM concentration
Text: (§1) Then, 8f was submitted to NCI for antiproliferative evaluation against 59 different tumor cell lines. The cancer types of the NCI-60 program include leukemia, non-small cell lung cancer (NSCLC), colon cancer, CNS cancer, melanoma, ovary cancer, renal cancer, prostate cancer, and breast cancer.

[2] = test system: NCI-H23; test: NCI-60 antiproliferative screening, NCI-H23; assay type: cell-based; conditions: Homo sapiens, NCI-H23 (Non-Small Cell Lung Cancer), read-out: Inhibition% values at 10 μM concentration
Text: as §1

## COc1cccc(-c2nc3c(c(-c4cccc(OC)c4)n2)CCN(C(=O)CCCCCCC(=O)NO)C3)c1 [Compound 8f, 8-(2,4-Bis(3-methoxyphenyl)-5,8-dihydropyrido [3,4-d]pyrimidin-7(6H)-yl)-N-hydroxy-8-oxooctanamide]
[1]
  inhibition at 10 µM: 92.1%
[2]
  inhibition at 10 µM: 100%
